Test results published in patent US12558345B2, “CHK1/2 inhibitors for use in the treatment of neuroblastomas and/or soft tissue sarcomas” (Eli Lilly and Company, priority 2015, dated 2026).
Counter-ions that a name gives are not always drawn.

Legend:
[1] = tested on: DSRCT xenograft models; assay: Sarcoma xenograft models by tumor subtype: DSRCT; format: in vivo, mouse
Experimental: (§1) The efficacy of 5-(5-(2-(3-aminopropoxy)-6-methoxyphenyl)-1H-pyrazol-3-ylamino)pyrazine-2-carbonitrile methanesulfonic acid monohydrate is measurable in vivo in mouse models of neuroblastomas and human pediatric and adult sarcomas. 5-(5-(2-(3-Aminopropoxy)-6-methoxyphenyl)-1H-pyrazol-3-ylamino)pyrazine-2-carbonitrile methanesulfonic acid monohydrate (10 mg/kg) can be administered subcutaneously to nude mice bearing either cell-derived xenografts (CDX) or patient-derived xenografts (PDX) of human rhabdomyosarcoma, desmoplastic small round cell tumor (DSRCT), osteosarcoma, and Ewing's sarcoma using a 3 day on, 4 day off b.i.d. dosing schedule. Tumor volume and body weight can be measured two times per week. Tumor-specific parameters can be evaluated by immumohistochemistry.
(§2) For all “CTG” models (encompassing human RMS, DSRCT, EWS, OS and LMS patient-derived xenograft models), female NCr nude spontaneous mutant mice (5-8 weeks old, Taconic) are implanted unilaterally in the flank region with tumor fragments harvested from donor animals, each implanted from a specific passage lot.
(§3) For all “ST” models (encompassing RMS and LMS), patient-derived xenografts are established from viable human tumor tissue and are serially passaged in animals a limited number of times to maintain tumor heterogeneity. In subcutaneous models, athymic nude mice (Crl:NU(NCr)-Foxn1nu) or CB-17 SCID mice (CRL-CB17/Icr-Prkdcscid/IcrIcoCrl) are injected or implanted unilaterally into the flank with tumor fragments harvested from host animals, each implanted from a specific passage lot. For all studies, measure tumor growth and body weight twice per week beginning on the seventh day after implantation. When tumor size reaches 150-300 mm^3, randomize animals and group into groups of 4-7 animals. Prepare test compound in an appropriate vehicle (e.g. vehicle can be 20% Captisol® in sterile water) and administer subcutaneously for three consecutive days followed by a four day dosing holiday and repeat for a minimum of four weeks. Tumor response is determined by tumor volume measurement performed twice per week during the course of treatment.

[2] = tested on: Liposarcoma xenograft models; assay: Sarcoma xenograft models by tumor subtype: Liposarcoma; format: in vivo, mouse; conditions: age of patients 36-74 years
[3] = tested on: pediatric sarcoma in vivo mouse models; assay: Pediatric tumor / pediatric sarcoma in vivo mouse models (panel)
Experimental: as §1, §2
For all “ST” models (encompassing RMS and LMS), patient-derived xenografts are established from viable human tumor tissue and are serially passaged in animals a limited number of times to maintain tumor heterogeneity. In subcutaneous models, athymic nude mice (Crl:NU(NCr)-Foxn1nu) or CB-17 SCID mice (CRL-CB17/Icr-Prkdcscid/IcrIcoCrl) are injected or implanted unilaterally into the flank with tumor fragments harvested from host animals, each implanted from a specific passage lot. For all studies, measure tumor growth and body weight twice per week beginning on the seventh day after implantation. When tumor size reaches 150-300 mm^3, randomize animals and group into groups of 4-7 animals. […] Tumor response is determined by tumor volume measurement performed twice per week during the course of treatment.

[4] = tested on: ST1547 LMS patient-derived xenograft; assay: Xenograft Tumor Model ST1547; format: in vivo, mouse; conditions: comparator day 28, p-value <0.001
Experimental: as §3

[5] = tested on: IMR-32 human NBM cancer cell xenograft; assay: Xenograft Tumor Model IMR-32; format: in vivo, mouse; conditions: IMR-32, NBM, comparator day 66, p-value <0.001
Experimental: The following protocol can be used to measure reductions in tumor volume in response to an active pharmaceutical ingredient. Expand human NBM cancer cells SH-SY5Y (ATCC, #CRL-2226) in culture, harvest, and inject 5×10^6 cells in 200 μL of 1:1 solution of HBSS and Matrigel® subcutaneously into the right rear flank of female CD-1 nu/nu mice (20-24 g, Charles River Laboratories). Expand human NBM cancer cells KELLY (Sigma-#92110411) in culture, harvest, and inject 5×10^6 cells in 200 μL of 1:1 solution of HBSS and Matrigel® subcutaneously into the right rear flank of female CB-17 SCID mice (20-24 g, Charles River Laboratories). Expand human NBM cancer cells IMR-32 (ATCC, #CCL-127) in culture, harvest, and inject 5×10^6 cells in 200 μL of 1:1 solution of HBSS and Matrigel® subcutaneously into the right rear flank of female CB-17 SCID mice (20-24 g, Charles River Laboratories).
For all “ST” models (encompassing RMS and LMS), patient-derived xenografts are established from viable human tumor tissue and are serially passaged in animals a limited number of times to maintain tumor heterogeneity. […] Tumor response is determined by tumor volume measurement performed twice per week during the course of treatment.

[6] = tested on: ST658 LMS patient-derived xenograft; assay: Xenograft Tumor Model ST658; format: in vivo, mouse; conditions: comparator day 16, p-value 0.592
Experimental: as §3

[7] = tested on: Thirty solid tumor cell lines from 13 tumor histotypes; assay: Monolayer Proliferation and Cytotoxicity Assay (Oncotest, modified PI assay); format: cell-based; conditions: 96 h, 4 days of treatment, PI fluorescence, read-out: EC50, growth inhibition of the majority of the tumor cell lines
From the text: One measure of potency of a CHK1 inhibitor is its ability to inhibit the proliferation of cancer cells in culture due to uncontrolled replication origin activation. (Conti et al. Cell Cycle 6: 2760-2767, 2007) Determination of CHK1 inhibitor antiproliferative activity in cell lines derived from a broad range of tumor types is indicative of which tumor types may be clinically responsive to chemotherapy with CHK1 inhibitors. The following described cellular proliferation assay is run at Oncotest, GmbH in Germany. Thirty solid tumor cell lines are derived from 13 different tumor histotypes, each represented by 1 to 6 different cell lines (Oncotest, GmbH). […] Briefly, adherent cells are harvested from exponential phase cultures by trypsinization, counted and plated in 96 well flat-bottomed microtiter plates at a cell density depending on the cell line (4.000-20.000 cells/well). […] Finally, PI fluorescence is measured using the Cytofluor 4000 microplate reader (excitation k=530 nm, emission k=620 nm) to determine the total viable cell number. Growth inhibition is expressed as Test/Control×100 (% T/C) values. Based on the T/C values, relative IC50 values are determined using non-linear regression (log[conc. of inhibitor] versus response (% T/C)).

[8] = results ranging from stable disease to complete response

Structure (SMILES)	Result of Treatment: Complete Response (models) ([1]; DSRCT, age of patients 20 years)	tumor response when re-challenged ([1]; PDX model of DSRCT, after regrowth)	time post-treatment at which tumor growth is observed ([1]; PDX model of DSRCT, upon cessation of therapy)	tumor response in a PDX model of DSRCT ([1]; following four dosing cycles)	Result of Treatment: Progressive Disease (models) [2]	pediatric tumor models with strong single agent activity ([3]; ranging from stable disease to complete regression, 10 mg/kg SC, 3 day on, 4 day off b.i.d.)	pediatric sarcoma in vivo mouse models in which effective as a single agent (models) [3, 8]	pediatric sarcoma in vivo mouse models in which effective as a single agent (percent) [3, 8]	% T/C [4]	% Regression [5]	% T/C [6]	EC50 [7]
COc1cccc(OCCCN)c1-c1cc(Nc2cnc(C#N)cn2)n[nH]1 [Example 5, 5-(5-(2-(3-Aminopropoxy)-6-methoxyphenyl)-1H-pyrazol-3-ylamino)pyrazine-2-carbonitrile methanesulfonic acid monohydrate]	1/1 Complete	tumor regression	50 days	complete regression	7/7 Progressive	7/13	7/17	~41%	5%	−72%	137%	
COc1cccc(OCCCN)c1-c1cc(Nc2cnc(C#N)cn2)n[nH]1 [Example 2, 5-(5-(2-(3-Aminopropoxy)-6-methoxyphenyl)-1H-pyrazol-3-ylamino)pyrazine-2-carbonitrile dihydrogen chloride salt]												< 0.02 µM
